Experimental data published in ChEMBL document CHEMBL1201862, “PubChem BioAssay data set” (2004).
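Method: 48-hour compound exposure of cells in 96-well plates, five concentrations, linear interpolation of endpoints. Here, GI50 denotes the concentration required for 50% inhibition of growth.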 Calls of active or inactive are those of the source. Cut-off read from the data, not from the text of the source: active = GI50 up to about 1.1 µM and inactive = higher.

Assays:
Experiment in all cases: inhibition of tumour cell growth, NCI panel, 48 h
[1] = test system: K562
[2] = test system: LOX IMVI
[3] = test system: SK-MEL-2
[4] = test system: SK-MEL-5
[5] = test system: SF-295
[6] = test system: IGROV-1
[7] = test system: OVCAR-5
[8] = test system: OVCAR-4
[9] = test system: CAKI-1
[10] = test system: HCT-116
[11] = test system: A498
[12] = test system: COLO 205
[13] = test system: SR
[14] = test system: PC-3
[15] = test system: SNB-19
[16] = test system: ACHN
[17] = test system: RPMI-8226
[18] = test system: HT-29
[19] = test system: KM12
[20] = test system: MDA-MB-435

Clc1ccc(-c2nc(-c3ccc(Cl)cc3)[s+]s2)cc1
GI50 [1]: 24.3 µM (inactive)
GI50 [2]: 33.1 µM (inactive)
GI50 [3]: > 100 µM (inactive)
GI50 [4]: 47.8 µM (inactive)
GI50 [5]: > 100 µM (inactive)
GI50 [6]: 19.7 µM (inactive)
GI50 [7]: > 100 µM (inactive)
GI50 [8]: 27.7 µM (inactive)
GI50 [9]: > 100 µM (inactive)
GI50 [10]: 51.4 µM (inactive)
GI50 [11]: > 100 µM (inactive)
GI50 [12]: > 100 µM (inactive)
GI50 [13]: 28.4 µM (inactive)
GI50 [14]: > 100 µM (inactive)
GI50 [15]: 50.5 µM (inactive)
GI50 [16]: 38.6 µM (inactive)
GI50 [17]: 32.6 µM (inactive)
GI50 [18]: 48.1 µM (inactive)
GI50 [19]: 42.1 µM (inactive)
GI50 [20]: 74.1 µM (inactive)

COC(=O)C(COC(C)=O)NC(=O)/C=C/c1ccc(O)c(OC(C)=O)c1 (stereo not given)
GI50 [1]: 44.6 µM (inactive)
GI50 [2]: 44.6 µM (inactive)
GI50 [3]: > 100 µM (inactive)
GI50 [4]: > 100 µM (inactive)
GI50 [5]: > 100 µM (inactive)
GI50 [6]: 31.6 µM (inactive)
GI50 [7]: > 100 µM (inactive)
GI50 [8]: 70.8 µM (inactive)
GI50 [9]: 66.2 µM (inactive)
GI50 [10]: 39.1 µM (inactive)
GI50 [11]: > 100 µM (inactive)
GI50 [12]: > 100 µM (inactive)
GI50 [13]: 5.81 µM (inactive)
GI50 [14]: 99.1 µM (inactive)
GI50 [15]: > 100 µM (inactive)
GI50 [16]: 74 µM (inactive)
GI50 [17]: 29.6 µM (inactive)
GI50 [18]: 78.2 µM (inactive)
GI50 [19]: 67.1 µM (inactive)
GI50 [20]: > 100 µM (inactive)

O=C(/C=C1\C[C@H]2C=Nc3ccccc3C(=O)N2C1)NCCCCCNC(=O)/C=C1\C[C@H]2C=Nc3ccccc3C(=O)N2C1
GI50 [1]: 2.88 µM (inactive)
GI50 [2]: 1.98 µM (inactive)
GI50 [3]: 15.1 µM (inactive)
GI50 [4]: 22.2 µM (inactive)
GI50 [5]: 18.3 µM (inactive)
GI50 [6]: 11 µM (inactive)
GI50 [7]: 18.8 µM (inactive)
GI50 [8]: 7.53 µM (inactive)
GI50 [9]: 2.6 µM (inactive)
GI50 [10]: 6.14 µM (inactive)
GI50 [11]: 19.1 µM (inactive)
GI50 [12]: 0.532 µM (active)
GI50 [13]: 1.6 µM (inactive)
GI50 [14]: 13.8 µM (inactive)
GI50 [15]: 16.1 µM (inactive)
GI50 [16]: 1.98 µM (inactive)
GI50 [17]: 4.28 µM (inactive)
GI50 [18]: 11.6 µM (inactive)
GI50 [19]: 17.7 µM (inactive)
GI50 [20]: 4.7 µM (inactive)

Cn1c(=O)c2c(nc3sc4c(n32)C(=O)c2c(O)ccc(O)c2C4=O)n(C)c1=O
GI50 [1]: 0.64 µM (active)
GI50 [2]: 0.871 µM (active)
GI50 [3]: 4.42 µM (inactive)
GI50 [4]: 2.46 µM (inactive)
GI50 [5]: 31.2 µM (inactive)
GI50 [6]: 8.02 µM (inactive)
GI50 [7]: 28 µM (inactive)
GI50 [8]: 1.46 µM (inactive)
GI50 [9]: 6.04 µM (inactive)
GI50 [10]: 1.87 µM (inactive)
GI50 [11]: 22.1 µM (inactive)
GI50 [12]: 3.46 µM (inactive)
GI50 [13]: 0.598 µM (active)
GI50 [14]: 5.4 µM (inactive)
GI50 [15]: > 53.1 µM (inactive)
GI50 [16]: 2.94 µM (inactive)
GI50 [17]: 0.298 µM (active)
GI50 [18]: 2.19 µM (inactive)
GI50 [19]: 2.77 µM (inactive)
GI50 [20]: 4.78 µM (inactive)

OCC(O)C(O)C(O)C(/C=N\Nc1ncnc2ccc(Br)cc12)=N/Nc1ncnc2ccc(Br)cc12 (stereo not given)
GI50 [1]: 7.48 µM (inactive)
GI50 [2]: 5.12 µM (inactive)
GI50 [3]: 3.33 µM (inactive)
GI50 [4]: 3.37 µM (inactive)
GI50 [5]: 23 µM (inactive)
GI50 [6]: 4.09 µM (inactive)
GI50 [7]: 16.7 µM (inactive)
GI50 [8]: 2.94 µM (inactive)
GI50 [9]: 4.55 µM (inactive)
GI50 [10]: 3.09 µM (inactive)
GI50 [11]: 50.5 µM (inactive)
GI50 [12]: 3.31 µM (inactive)
GI50 [13]: 3.17 µM (inactive)
GI50 [14]: 19 µM (inactive)
GI50 [15]: 51.5 µM (inactive)
GI50 [16]: 5.24 µM (inactive)
GI50 [17]: > 100 µM (inactive)
GI50 [18]: 4.44 µM (inactive)
GI50 [19]: 17.2 µM (inactive)
GI50 [20]: 12.9 µM (inactive)

NCCSc1nc2ccccc2s1
GI50 [1]: 10.6 µM (inactive)
GI50 [2]: 30.7 µM (inactive)
GI50 [3]: 26.1 µM (inactive)
GI50 [4]: 52.7 µM (inactive)
GI50 [5]: 23.4 µM (inactive)
GI50 [6]: 41.5 µM (inactive)
GI50 [7]: 38.3 µM (inactive)
GI50 [8]: 29 µM (inactive)
GI50 [9]: 38.5 µM (inactive)
GI50 [10]: 33.7 µM (inactive)
GI50 [11]: 32.9 µM (inactive)
GI50 [12]: > 100 µM (inactive)
GI50 [13]: 25.9 µM (inactive)
GI50 [14]: 44 µM (inactive)
GI50 [15]: 64.7 µM (inactive)
GI50 [16]: 33.5 µM (inactive)
GI50 [17]: 31.9 µM (inactive)
GI50 [18]: 34 µM (inactive)
GI50 [19]: 45.1 µM (inactive)
GI50 [20]: 23 µM (inactive)

O=C(NCCCNCCN1C(=O)c2cccc3cc([N+](=O)[O-])cc(c23)C1=O)c1cc(-c2ccccc2)nc2ccccc12
GI50 [1]: 0.836 µM (active)
GI50 [2]: 1.04 µM (active)
GI50 [3]: 3.31 µM (inactive)
GI50 [4]: 2.09 µM (inactive)
GI50 [5]: 3.08 µM (inactive)
GI50 [6]: 2.54 µM (inactive)
GI50 [7]: 3.94 µM (inactive)
GI50 [8]: 3.2 µM (inactive)
GI50 [9]: 6.07 µM (inactive)
GI50 [10]: 1.23 µM (inactive)
GI50 [11]: 4.2 µM (inactive)
GI50 [12]: 1.45 µM (inactive)
GI50 [13]: 0.426 µM (active)
GI50 [14]: 3.61 µM (inactive)
GI50 [15]: 3.72 µM (inactive)
GI50 [16]: 0.991 µM (active)
GI50 [17]: 1.13 µM (inactive)
GI50 [18]: 0.971 µM (active)
GI50 [19]: 4.4 µM (inactive)
GI50 [20]: 1.46 µM (inactive)

O=C1c2ccccc2C(=O)N1CCSCC(CO)SCCN1C(=O)c2ccccc2C1=O (stereo not given)
GI50 [1]: 75.3 µM (inactive)
GI50 [2]: > 100 µM (inactive)
GI50 [3]: > 100 µM (inactive)
GI50 [4]: > 100 µM (inactive)
GI50 [5]: > 100 µM (inactive)
GI50 [6]: > 100 µM (inactive)
GI50 [7]: > 100 µM (inactive)
GI50 [8]: 48.6 µM (inactive)
GI50 [9]: > 100 µM (inactive)
GI50 [10]: > 100 µM (inactive)
GI50 [11]: > 100 µM (inactive)
GI50 [12]: > 100 µM (inactive)
GI50 [13]: > 100 µM (inactive)
GI50 [14]: > 100 µM (inactive)
GI50 [15]: > 100 µM (inactive)
GI50 [16]: > 100 µM (inactive)
GI50 [17]: 80.2 µM (inactive)
GI50 [18]: > 100 µM (inactive)
GI50 [19]: > 100 µM (inactive)
GI50 [20]: > 100 µM (inactive)

CC(C(O)c1ccccc1)C(O)(C(F)(F)F)C(F)(F)F (stereo not given)
GI50 [1]: > 100 µM (inactive)
GI50 [2]: > 100 µM (inactive)
GI50 [3]: > 100 µM (inactive)
GI50 [4]: 49.7 µM (inactive)
GI50 [5]: > 100 µM (inactive)
GI50 [6]: 84.5 µM (inactive)
GI50 [7]: > 100 µM (inactive)
GI50 [8]: > 100 µM (inactive)
GI50 [9]: > 100 µM (inactive)
GI50 [10]: > 100 µM (inactive)
GI50 [11]: > 100 µM (inactive)
GI50 [12]: > 100 µM (inactive)
GI50 [13]: > 100 µM (inactive)
GI50 [14]: > 100 µM (inactive)
GI50 [15]: > 100 µM (inactive)
GI50 [16]: > 100 µM (inactive)
GI50 [17]: > 100 µM (inactive)
GI50 [18]: > 100 µM (inactive)
GI50 [19]: > 100 µM (inactive)
GI50 [20]: > 100 µM (inactive)

O=CNNC(=O)CSc1nc2ccc(I)cc2c(=O)n1Cc1ccccc1
GI50 [1]: 8.79 µM (inactive)
GI50 [2]: 25.4 µM (inactive)
GI50 [3]: 20.9 µM (inactive)
GI50 [4]: 18.6 µM (inactive)
GI50 [5]: 40.6 µM (inactive)
GI50 [6]: 32.3 µM (inactive)
GI50 [7]: 61.8 µM (inactive)
GI50 [8]: 40.4 µM (inactive)
GI50 [9]: 22.2 µM (inactive)
GI50 [10]: 20.4 µM (inactive)
GI50 [11]: 37.9 µM (inactive)
GI50 [12]: 17.9 µM (inactive)
GI50 [13]: 32.2 µM (inactive)
GI50 [14]: 39 µM (inactive)
GI50 [15]: 46.6 µM (inactive)
GI50 [16]: 34.8 µM (inactive)
GI50 [17]: < 0.01 µM (active)
GI50 [18]: 34.9 µM (inactive)
GI50 [19]: 33.4 µM (inactive)
GI50 [20]: 40.5 µM (inactive)

C#C[C@]1(O)CC[C@H]2[C@@H]3CCC4=C/C(=N\OCCN(CC)CC)CC[C@]4(C)[C@H]3CC[C@@]21C
GI50 [1]: 3.09 µM (inactive)
GI50 [2]: 3.13 µM (inactive)
GI50 [3]: 3.27 µM (inactive)
GI50 [4]: 2.44 µM (inactive)
GI50 [5]: 2.16 µM (inactive)
GI50 [6]: 3.85 µM (inactive)
GI50 [7]: 12.9 µM (inactive)
GI50 [8]: 12.5 µM (inactive)
GI50 [9]: 7.93 µM (inactive)
GI50 [10]: 3.44 µM (inactive)
GI50 [11]: 10.8 µM (inactive)
GI50 [12]: 3.02 µM (inactive)
GI50 [13]: 2.94 µM (inactive)
GI50 [14]: 3.18 µM (inactive)
GI50 [15]: 5.06 µM (inactive)
GI50 [16]: 6.7 µM (inactive)
GI50 [17]: 2.53 µM (inactive)
GI50 [18]: 3.74 µM (inactive)
GI50 [19]: 2.92 µM (inactive)
GI50 [20]: 3.27 µM (inactive)
